For one data set, the system named is GL261. In words: Cytotoxicity against mouse GL261 cells assessed as reduction in cell viability incubated for 24 hrs by CCK8 assay. It counts as functional, cell-based. The following applies: GL261, 24 h. In general terms: Tetrazolium assays rely on reduction of a dye to a coloured formazan, in cell work by metabolically active cells.
Another data set concerns U-87 MG. Briefly: Cytotoxicity against human U87 cells assessed as reduction in cell viability incubated for 24 hrs by CCK8 assay. The class given is functional, cell-based, U-87MG ATCC.
For another data set, the system named is Hs 683. In words: Cytotoxicity against human Hs 683 cells assessed as reduction in cell viability incubated for 24 hrs by CCK8 assay. It counts as functional, cell-based. The following applies: Hs 683, 24 h.
Data set [1] is described as follows: Aqueous solubility of compound at up to 80 uM measured after 10 mins by optical microscopic analysis. The class given is physicochemical. The following applies: buffer.

For `Cc1ccc(CNC(=O)Cn2c(CO)cnc2SCC(=O)Nc2ccc3c(c2)OCO3)cc1`, the figures for the IC50 in the data set with GL261, in the data set on U-87 MG and in the data set on Hs 683 were 50.1 µM, 37.8 µM and 41.5 µM, respectively.

With `O=C(C1=C(O)C(=O)N(CCc2c[nH]c3ccccc23)[C@@H]1c1cccc(O)c1)c1ccc(Cl)cc1`, the figures for the IC50 in the data set on GL261, in the data set with U-87 MG and in the data set on Hs 683 were 57.3 µM, 54.3 µM and 60.8 µM, respectively.

As to `COc1ccc(NS(=O)(=O)c2ccc(NC(=S)NC(=O)C(C)C)cc2)cc1`, the values for the IC50 in the data set with GL261, with U-87 MG and with Hs 683 were 61.3 µM, 56.7 µM and 53.2 µM, respectively.

With `CCN(C(=O)[C@H](Cc1ccccc1)NS(=O)(=O)c1cccc2nsnc12)c1ccccc1`, the results for the IC50 in the data set on GL261, in the data set on U-87 MG and in the data set on Hs 683 were 60.6 µM, 66.3 µM and 69.8 µM, respectively.

As for `CC1Oc2ccc(S(=O)(=O)Nc3ccc(CCC(=O)O)cc3)cc2NC1=O` (stereo unspecified), the IC50 (commonly the concentration at which inhibition is half-maximal) with GL261 amounted to 52.5 µM; with U-87 MG it was 47.4 µM; in the data set on Hs 683 it was 41.5 µM.

`O=C(Cc1cccc2ccccc12)NNC(=O)Nc1cccc(Cl)c1`: the IC50 in the data set with GL261, with U-87 MG and in the data set on Hs 683 was over 100 µM in each case.

In the case of `Cc1ccc(CN2C(=O)[C@](O)(CC(=O)c3ccc4c(c3)OCO4)c3cc(Br)ccc32)cc1`, the IC50 in the data set with GL261 amounted to 21.3 µM; with U-87 MG it was 15.5 µM; in the data set with Hs 683 it was 18.7 µM. Besides, in data set [1], the solubility result is reported as “Insoluble”.

As to `Cc1ccc([C@H](O)CNC(=O)c2cccc(C)c2C)cc1`, the IC50 in the data set with GL261 is 74.2 µM; with U-87 MG it was 67.3 µM; in the data set with Hs 683, 70.3 µM.

Regarding `COc1ccccc1[C@H](CNC(=O)CCc1c[nH]c2ccccc12)N1CCCC1`, the values for the IC50 with GL261, in the data set with U-87 MG and in the data set on Hs 683 were 94.6 µM, over 100 µM and over 100 µM, respectively.

Consider `NC(=O)C1CCN(C(=O)c2ccc(CSc3nc4cccnc4n3Cc3ccccc3)cc2)CC1`, for which the IC50 with GL261 was 56.7 µM; with U-87 MG, 60.3 µM; in the data set with Hs 683 it was 62.3 µM.

`COc1ccc(N2C(=O)C[C@H](C(=O)NC3CCCCC3)[C@H]2c2ccc(F)cc2)cc1`: the IC50 turned out to be 90.2 µM in the data set with GL261, 77.9 µM in the data set with U-87 MG and 84.5 µM in the data set with Hs 683.

On to `O=C(NCCc1ccccc1)c1ccc(N2C[C@@H]3C[C@H](C2)c2cccc(=O)n2C3)c(NS(=O)(=O)c2cccc(Cl)c2)c1`, for which the IC50 was 48.1 µM in the data set on GL261, 56.2 µM with U-87 MG and 55.3 µM in the data set on Hs 683.

Regarding `Cc1ccc(NC(=O)C[C@H]2SC(NC(c3ccc(F)cc3)c3c(O)[nH]c(=O)[nH]c3=O)=NC2=O)cc1C` (stereo partly specified), the IC50 in the data set with GL261 is 47.9 µM; with U-87 MG, 46.5 µM; in the data set with Hs 683, 40.8 µM.

On to `COc1cccc2c1OC(c1ccc(F)cc1)N1N=C(c3ccccc3)CC21` (stereo unspecified), for which the IC50 in the data set on GL261, in the data set with U-87 MG and in the data set with Hs 683 was over 100 µM in each case.

As for `COc1ccc(Cn2c(SCC(=O)n3c4c(c5ccccc53)CCCC4)nc3ccccc32)cc1`, the IC50 was found to be 90.4 µM in the data set on GL261, 88.5 µM with U-87 MG and 91.4 µM in the data set on Hs 683.

Source of the values: ChEMBL document CHEMBL5029168, “Discovery of novel ID2 antagonists from pharmacophore-based virtual screening as potential therapeutics for glioma” (Bioorg Med Chem, 2021).
